# From US20260112450A1, “METHODS FOR SELECTION OF CANCER PATIENTS FOR ANTI-ANGIOGENIC AND IMMUNE CHECKPOINT BLOCKAGE THERAPIES AND COMBINATIONS THEREOF” (Washington University, priority 2022, published 2026)
# Where “and” joins values, the source holds several entries; their conditions need not be identical. Equal values may be shown once.
# Tests used:
# [1] = system: clear cell renal carcinoma; assay: Braun dataset (Checkmate 025 and Checkmate 010): overall survival, re-evaluated by angio-immune subtype; format: in vivo, human; conditions: for differences in median OS between angio-immune molecular subtypes: comparison of C1, C2 and C3 within one treatment arm
# Text: (§1) Immunotherapy datasets: Pre-treatment TPM normalized RNA sequencing data from anti-PD1/L1 and anti-CTLA4 treated cohorts were downloaded for the studies as described in Table 1. Studies were selected based on the following criteria: >20 samples for enrichment calculation, RNA sequencing of pre-treatment biopsies, and only anti-PD1/PDL1 treated patients. Gene signature enrichment and molecular subtypes were derived as described elsewhere in the manuscript. Survival and response rates to treatment when available were compared among angio-immune clusters.
# (§2) Quantification and Statistical Analysis: Unless indicated elsewhere, all visualizations were completed in GraphPad Prism 9. GraphPad Prism 9 was used for all statistical analysis. Data is presented as mean±standard error of mean. One way ANOVA was used for comparison across more than two groups. Non-parametric tests were used when data was not normally distributed. Log rank tests were used for all survival analysis. Alpha value of 0.05 was used throughout the study.
# (§3) The approval of the combination of avelumab, an anti-PDL1, and axitinib, a small molecule tyrosine kinase inhibitor, for the first-line treatment of metastatic renal cancer was provided in 2020. […] Next, it was sought to ascertain if stratification by angio-immune subtypes can confer more significant differences in responses and survival.
# (§4) The enrichment of the 91 angio-immune signatures was scored using RNA sequencing data from pre-treatment biopsies.
# Survival was tracked across clusters to identify if angio-immune molecular subtypes can inform treatment choice in this setting. […] To determine if patients belonging to C1, C2, and C3 derive clinical benefit from Nivolumab over everolimus, OS was tracked among angio-immune molecular subtypes across treatment arms.
# metastatic renal cancer = assay: Javelin Renal 101 clinical trial: progression free survival, re-evaluated by angio-immune subtype; format: in vivo, human
# Text: as §1, §2, §3, §4
# Survival was tracked across clusters to identify if angio-immune molecular subtypes can inform treatment choice in this setting.
# [2] = all patients with pre-treatment RNA sequencing data, Braun dataset
# [3] = patients in angio-immune subtype C1, Braun dataset
# [4] = patients in angio-immune subtype C2, Braun dataset
# [5] = patients in angio-immune subtype C3, Braun dataset
Compound,"median OS [1, 2] [months]",differences in median OS between angio-immune molecular subtypes [1],"median OS [1, 3] [months]","median OS [1, 4]","median OS [1, 5]","median PFS (metastatic renal cancer; all patients with pre-treatment RNA sequencing data, Javelin Renal 101 dataset) [months]","median PFS (metastatic renal cancer; patients in angio-immune subtype C1, Javelin Renal 101 dataset) [months]","median PFS (metastatic renal cancer; patients in angio-immune subtype C2, Javelin Renal 101 dataset) [months]","median PFS (metastatic renal cancer; patients in angio-immune subtype C3, Javelin Renal 101 dataset) [months]","clinical benefit (OS) compared to everolimus ([1]; patients in C1, p=0.6347)","clinical benefit (OS) compared to everolimus ([1]; patients in C2, p=0.0581)","median OS compared to the everolimus arm ([1]; patients in C3, p<0.0043)"
CO[C@H]1C[C@@H]2CC[C@@H](C)[C@@](O)(O2)C(=O)C(=O)N2CCCC[C@H]2C(=O)O[C@H]([C@H](C)C[C@@H]2CC[C@@H](OCCO)[C@H](OC)C2)CC(=O)[C@H](C)/C=C(\C)[C@@H](O)[C@@H](OC)C(=O)[C@H](C)C[C@H](C)/C=C/C=C/C=C/1C [everolimus],19.7454,no significant differences,24.6735,21.13 months,13.27 months,,,,,,,
CCN(CC)CCNC(=O)c1c(C)[nH]c(/C=C2\C(=O)Nc3ccc(F)cc32)c1C [sunitinib],,,,,,8.4,9.7,8.3,8.2,,,
Nivolumab: an anti-PD1 therapy,25.9877,significant improvement in median OS,16.9528,36.961 months and 36.96 months,29.8645 months and 29.86 months,,,,,no clinical benefit,no statistically significant clinical benefit,significantly improved
